Source: ChEMBL document CHEMBL1201862, “PubChem BioAssay data set” (2004)
Calls of active or inactive are those of the source.

How the values were obtained:
Cytochrome P450 2C9 = Cytochrome P450 2C9 (Homo sapiens, UniProt P11712)
Cytochrome P450 1A2 = molecular target: T1, Cytochrome P450 1A2 (Homo sapiens, UniProt P05177);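 note: PubChem cytochrome P450 panel assay, CYP1A2 panel member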
T1 sequence (P05177 whole entry): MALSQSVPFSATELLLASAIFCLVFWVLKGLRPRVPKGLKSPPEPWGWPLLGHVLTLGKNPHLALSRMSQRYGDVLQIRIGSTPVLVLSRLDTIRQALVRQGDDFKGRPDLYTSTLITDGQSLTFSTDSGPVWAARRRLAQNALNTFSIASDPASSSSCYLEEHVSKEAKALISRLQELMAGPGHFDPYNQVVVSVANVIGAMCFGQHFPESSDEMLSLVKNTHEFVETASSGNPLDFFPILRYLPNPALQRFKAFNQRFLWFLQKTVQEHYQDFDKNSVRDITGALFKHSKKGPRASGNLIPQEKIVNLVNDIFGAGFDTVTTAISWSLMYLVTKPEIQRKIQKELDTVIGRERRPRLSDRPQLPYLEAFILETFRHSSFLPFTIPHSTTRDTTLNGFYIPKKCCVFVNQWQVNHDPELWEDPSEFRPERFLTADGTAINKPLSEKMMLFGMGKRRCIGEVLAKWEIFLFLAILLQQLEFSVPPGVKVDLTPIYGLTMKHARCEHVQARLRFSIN

[1] = molecular target: T2, Ubiquitin-conjugating enzyme E2 N (Homo sapiens, UniProt P61088); type: functional;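 note: Dose-response confirmation in a TR-FRET assay detecting UBC13-driven polyubiquitin chain formation, inhibition measured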
T2 sequence (P61088 whole entry): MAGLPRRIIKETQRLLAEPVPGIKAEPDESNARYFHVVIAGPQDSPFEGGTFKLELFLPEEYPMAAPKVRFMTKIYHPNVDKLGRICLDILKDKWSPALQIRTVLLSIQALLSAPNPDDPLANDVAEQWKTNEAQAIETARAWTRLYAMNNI

[2] = molecular target: T3, Endoribonuclease toxin MazF (Escherichia coli K-12, UniProt P0AE70); test: substrate-only fluorescence increase artefacts – biochemical, single-stranded RNase substrate, counter-screen for MazEF activator project, dose response (AID 588502); type: functional
T3 sequence (P0AE70 whole entry): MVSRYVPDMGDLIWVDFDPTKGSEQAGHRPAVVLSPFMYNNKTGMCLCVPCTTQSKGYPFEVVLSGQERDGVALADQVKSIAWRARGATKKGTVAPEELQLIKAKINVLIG

[3] = molecular target: T3, Endoribonuclease toxin MazF; test: activation of MazEF endoribonuclease cleavage – biochemical, fluorescence, single-stranded RNA substrate, uHTS hits, dose response (AID 588481); type: functional
[4] = molecular target: DNA dC->dU-editing enzyme APOBEC-3G (Homo sapiens, UniProt Q9HC16); test: Dose Response confirmation of small molecule APOBEC3G DNA Deaminase Inhibitors via a fluorescence-based single-stranded DNA deaminase assay. [Related pubchem assays (depositor defined):AID493012, AID493028]; type: functional
DNA dC->dU-editing enzyme APOBEC-3G, sequence (Q9HC16 whole entry): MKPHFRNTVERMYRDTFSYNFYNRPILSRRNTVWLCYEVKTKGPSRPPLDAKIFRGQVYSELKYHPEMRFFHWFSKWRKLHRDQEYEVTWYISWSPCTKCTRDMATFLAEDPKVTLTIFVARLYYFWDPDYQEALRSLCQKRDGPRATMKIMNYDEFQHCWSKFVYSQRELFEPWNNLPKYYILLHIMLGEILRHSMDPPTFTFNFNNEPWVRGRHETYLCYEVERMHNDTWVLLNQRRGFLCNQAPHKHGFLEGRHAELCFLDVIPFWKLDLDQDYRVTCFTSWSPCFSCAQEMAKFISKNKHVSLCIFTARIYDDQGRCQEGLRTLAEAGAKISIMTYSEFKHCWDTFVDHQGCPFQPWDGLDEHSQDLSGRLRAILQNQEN

[5] = molecular target: Glyceraldehyde-3-phosphate dehydrogenase (Homo sapiens, UniProt P04406)
Glyceraldehyde-3-phosphate dehydrogenase, sequence (P04406 whole entry): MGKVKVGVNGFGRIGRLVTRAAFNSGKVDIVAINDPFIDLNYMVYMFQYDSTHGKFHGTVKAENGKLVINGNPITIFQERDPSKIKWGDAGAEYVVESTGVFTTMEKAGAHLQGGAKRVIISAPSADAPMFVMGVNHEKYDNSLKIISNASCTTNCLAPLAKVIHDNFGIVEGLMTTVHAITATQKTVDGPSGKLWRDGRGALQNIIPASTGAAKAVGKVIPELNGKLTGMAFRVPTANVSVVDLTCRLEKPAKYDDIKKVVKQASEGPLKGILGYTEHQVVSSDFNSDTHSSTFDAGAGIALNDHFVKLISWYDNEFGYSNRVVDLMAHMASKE

[6] = Luminescence Cell-Based Dose Response HTS to Identify Activators of Luciferase Translation or Activity in H4 […] Cells. [Related pubchem assays: 1829 (Project Summary), 1814 (Primary HTS)]; type: functional
[7] = Luminescence Cell-Based Dose Confirmation HTS to Identify Activators of 5'UTR Stem-Loop Driven Alpha-Synuclein mRNA Translation in H4 Neuroglioblastoma Cells. [Related pubchem assays: 1829 (Project Summary), 1814 (Primary HTS)]; type: functional
H4 = test: Luminescence Cell-Based Dose Response HTS to Identify Activators of 5'UTR Stem-Loop Driven Prion Protein mRNA Translation in H4 Neuroglioblastoma Cells. [Related pubchem assays: 1829 (Project Summary), 1814 (Primary HTS)]; type: functional; details: Homo sapiens
Cytochrome P450 2C19 = Cytochrome P450 2C19 (Homo sapiens, UniProt P33261); test: Cytochrome panel assay with activity outcomes. Panel member name: p450-cyp2c19 Compounds with AC50 equal or less than 10 uM are considered active; type: functional; details: read-out: AC50
Cytochrome P450 2C19, sequence (P33261 whole entry): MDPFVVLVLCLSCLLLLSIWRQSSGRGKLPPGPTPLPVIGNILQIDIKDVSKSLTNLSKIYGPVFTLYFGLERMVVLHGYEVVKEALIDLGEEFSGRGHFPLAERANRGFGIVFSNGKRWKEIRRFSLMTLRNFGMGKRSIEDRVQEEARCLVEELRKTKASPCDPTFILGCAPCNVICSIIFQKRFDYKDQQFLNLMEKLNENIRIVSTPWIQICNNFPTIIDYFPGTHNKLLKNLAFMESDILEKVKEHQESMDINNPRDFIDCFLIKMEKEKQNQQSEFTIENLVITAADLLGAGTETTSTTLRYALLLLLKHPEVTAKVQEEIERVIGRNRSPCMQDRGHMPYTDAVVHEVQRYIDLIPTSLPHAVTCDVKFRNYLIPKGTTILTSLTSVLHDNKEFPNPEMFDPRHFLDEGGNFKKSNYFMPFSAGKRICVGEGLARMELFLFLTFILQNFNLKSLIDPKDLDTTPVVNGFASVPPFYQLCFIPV

[8] = THP-1 cell cytotoxicity, dose response, cytotoxicity control for non-replicating M. tuberculosis project (AID 489025); type: functional
cells = type: functional
Leucine aminopeptidase = molecular target: T4, Leucine aminopeptidase (Plasmodium falciparum 3D7, UniProt Q8IL11); test: P. falciparum M17LAP inhibitors, primary screen, biochemical, fluorogenic H-Leu-NHMec substrate, 1536-well (AID 1619); type: functional
T4 sequence (Q8IL11 whole entry): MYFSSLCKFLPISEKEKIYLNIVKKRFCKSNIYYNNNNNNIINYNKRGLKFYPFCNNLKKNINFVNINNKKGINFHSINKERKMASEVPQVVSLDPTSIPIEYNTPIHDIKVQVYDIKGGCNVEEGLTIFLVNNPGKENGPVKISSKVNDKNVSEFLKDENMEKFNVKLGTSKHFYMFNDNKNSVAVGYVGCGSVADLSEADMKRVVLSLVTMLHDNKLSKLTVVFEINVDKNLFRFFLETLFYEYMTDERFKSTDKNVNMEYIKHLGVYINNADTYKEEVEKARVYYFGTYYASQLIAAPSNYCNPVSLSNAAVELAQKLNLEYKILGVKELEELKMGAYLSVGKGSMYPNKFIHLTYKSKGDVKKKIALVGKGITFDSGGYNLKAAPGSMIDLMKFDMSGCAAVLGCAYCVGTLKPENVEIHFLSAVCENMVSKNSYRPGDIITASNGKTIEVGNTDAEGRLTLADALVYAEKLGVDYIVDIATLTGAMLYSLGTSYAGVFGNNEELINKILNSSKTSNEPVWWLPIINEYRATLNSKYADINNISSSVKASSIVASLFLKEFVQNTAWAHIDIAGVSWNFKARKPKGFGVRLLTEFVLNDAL

[9] = molecular target: Heat shock protein HSP 90-alpha (Homo sapiens, UniProt P07900); type: functional, organism-based
[10] = NIH3T3 cell viability loss – ATP luminescence, mouse fibroblasts, counter-screen, dose response (AID 2010); type: functional, cell-based;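 note: cells exposed to compound for about 90 hours before reading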
[11] = Trypanosoma cruzi growth suppression in host cells – NIH3T3 host cells, beta-gal luminescence, confirmation (AID 2044); type: functional, cell-based;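 note: intracellular parasites grown in NIH/3T3 mouse fibroblasts as host cells; luminescent beta-galactosidase reporter signal from transgenic T. cruzi replicating inside host cells; inhibitors lower the luminescence signal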
[12] = blockade of melanocortin 4 receptor signaling – cell-based, plate reader, cherry pick, counter-screen for LGR2 antagonist project, dose response (AID 743444); type: functional;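 note: transfected HEK 293 cells stimulated with alpha-MSH peptide; potency of inhibitors of the alpha-MSH evoked signal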
[13] = A549 cell cytotoxicity, dose response, cytotoxicity control, plate reader, cherry-pick, antagonist series (AID 743412); type: functional, cell-based
[14] = viability loss in HEK293 cells – cell-based, plate reader, cherry-picked samples, cytotoxicity control, dose response (AID 743446); type: functional
[15] = blockers of bursicon-stimulated LGR2 cAMP reporter – cell-based, HEK293, CRE-luciferase reporter, cherry pick, set 2, dose response (AID 743343); type: functional;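 note: transfected cells were stimulated with diluted bursicon conditioned medium after compound addition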
[16] = toxicity toward HepG2 liver cells – cell-based, plate reader, cherry-pick, antagonist series, cytotoxicity control, dose response (AID 743416); type: functional
[17] = intracellular Trypanosoma cruzi inhibitors in host cells – cell-based, plate reader, cherry-pick samples, set 3, dose response (AID 651818); type: functional;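 note: compounds incubated with infected cells for about four days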
Cytochrome P450 3A4 = Cytochrome P450 3A4 (Homo sapiens, UniProt P08684);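 note: CYP3A4 tested as one member of a cytochrome P450 panel screen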
Cytochrome P450 3A4, sequence (P08684 whole entry): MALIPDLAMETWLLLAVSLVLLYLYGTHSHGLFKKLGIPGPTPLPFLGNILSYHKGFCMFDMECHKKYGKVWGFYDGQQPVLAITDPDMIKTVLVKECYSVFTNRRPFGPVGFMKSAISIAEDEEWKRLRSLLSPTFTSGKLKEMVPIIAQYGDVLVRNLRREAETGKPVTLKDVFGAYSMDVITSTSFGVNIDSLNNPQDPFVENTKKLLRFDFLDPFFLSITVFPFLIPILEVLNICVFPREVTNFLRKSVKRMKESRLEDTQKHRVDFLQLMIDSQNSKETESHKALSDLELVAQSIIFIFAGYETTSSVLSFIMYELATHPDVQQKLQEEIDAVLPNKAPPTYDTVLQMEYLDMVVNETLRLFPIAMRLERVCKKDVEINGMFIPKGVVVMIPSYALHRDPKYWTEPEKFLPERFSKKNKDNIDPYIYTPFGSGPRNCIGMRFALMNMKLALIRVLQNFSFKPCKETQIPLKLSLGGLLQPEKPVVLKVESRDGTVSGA

[18] = growth inhibition of PfATP4-mutant resistant parasites – NITD609-resistant line, SYBR Green, dry powder, dose response (AID 1159571); type: functional, cell-based;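 note: parasites synchronized at ring stage by sorbitol before testing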
[19] = P. falciparum Dd2 growth inhibitors, dose response, SYBR Green, cherry-picked samples (AID 1159567); type: functional, cell-based
[20] = Dd2 malaria parasite growth inhibition potency – SYBR Green, dry powder samples, dose response (AID 1159566); type: functional, cell-based;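 note: potency for growth inhibition with lower SYBR green DNA signal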
[21] = growth inhibition of yeast DHODH-expressing 3D7 parasites – SYBR Green, dry powder samples, dose response (AID 1159570); type: functional, cell-based;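 note: parasite growth measured after 72 hours of compound exposure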

Cytochrome P450 2C9, sequence (P11712 whole entry): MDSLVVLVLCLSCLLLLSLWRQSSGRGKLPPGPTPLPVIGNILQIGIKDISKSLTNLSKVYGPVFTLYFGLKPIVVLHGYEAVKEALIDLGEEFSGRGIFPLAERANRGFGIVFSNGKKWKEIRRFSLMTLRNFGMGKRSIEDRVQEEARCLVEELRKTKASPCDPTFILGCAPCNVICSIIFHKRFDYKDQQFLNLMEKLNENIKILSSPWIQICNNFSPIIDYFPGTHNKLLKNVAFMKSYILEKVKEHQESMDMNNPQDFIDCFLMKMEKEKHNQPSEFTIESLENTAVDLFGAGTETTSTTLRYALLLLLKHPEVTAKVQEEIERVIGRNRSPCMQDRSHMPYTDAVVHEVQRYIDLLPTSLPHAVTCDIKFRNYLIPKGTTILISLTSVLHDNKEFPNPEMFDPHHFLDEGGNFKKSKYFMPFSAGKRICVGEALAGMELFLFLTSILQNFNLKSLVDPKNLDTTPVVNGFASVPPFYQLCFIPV

CCn1c(SCC(=O)c2ccc(OC)cc2)nnc1C1CC1
AC50 (Cytochrome P450 2C9): inconclusive | AC50 (Cytochrome P450 1A2): 17.8 µM (inconclusive)

N#CCCn1c(=O)c(-c2ccc(Cl)cc2)nc2cnc(Oc3cccc(Cl)c3)nc21
AC50 (Cytochrome P450 2C9): inconclusive

Cc1ccc(C(=O)N/C(=C/c2ccc(-c3cccc([N+](=O)[O-])c3)o2)C(=O)NCCCN(C)C)cc1
IC50 [1]: > 20 µM (inactive)

Cc1c(C(=O)Nc2ccc3c(c2)OCO3)sc2nc(-c3ccccc3)cn12
EC50 [2]: > 99 µM (inactive) | EC50 [3]: > 99 µM (inactive)

COc1ccccc1NS(=O)(=O)c1cc(NC(=O)c2cccs2)ccc1N1CCCC1
IC50 [4]: 37.1 µM (active)

CN1CCN(C2=C(Cl)C(=O)N(c3cccc(C(F)(F)F)c3)C2=O)CC1
IC50 [5]: > 50 µM (inconclusive)

O=C(c1ccc2c(c1)ncn2C1CCCCC1)N1CCC2(CC1)OCCO2
EC50 [6]: 6.5 µM (active) | EC50 [7]: > 120 µM (not active) | EC50 (H4): > 120 µM (not active)

Cc1nc(NC(=O)c2ccccc2)sc1-c1csc(Nc2ccc(F)cc2)n1
AC50 (Cytochrome P450 2C9): inconclusive | AC50 (Cytochrome P450 1A2): 4.47 µM (inconclusive) | AC50 (Cytochrome P450 2C19): 0.355 µM (inconclusive)

C=CCn1c(S)nnc1-c1ccc2ncccc2c1
IC50 [4]: 11.9 µM (active)

CCOc1ccc2nc(NC(=S)N(C)C)sc2c1
IC50 [4]: 62.4 µM (active)

CCNc1ncc2nc(-c3ccc(OC)cc3)c(=O)n(Cc3ccc(F)cc3)c2n1
AC50 (Cytochrome P450 2C9): inconclusive

COc1cccc(Cn2c(=O)c(-c3cc(F)cc(F)c3)nc3cnc(N4CCOCC4)nc32)c1
AC50 (Cytochrome P450 2C9): inconclusive

N=C(Cc1cccs1)NOC(=O)COc1ccccc1Cl
EC50 [6]: 50.4 µM (active) | EC50 [7]: 7.6 µM (active) | EC50 (H4): 46 µM (active)

CCCCOc1ccc(C2CCC(C(C)=O)C(C)C2)cc1 (stereo not given)
EC50 [6]: 26.8 µM (active) | EC50 [7]: 0.284 µM (active) | EC50 (H4): 41.5 µM (active)

Nc1nc2ccccc2n1C(=O)c1ccc(F)cc1
CC50 [8]: > 40 µM (active) | IC50 (cells): 9.58 µM (active)

Cc1ccccc1C(=O)NCC(=O)NNC(=S)NC(=O)c1ccccc1
IC50 [1]: > 20 µM (inactive) | IC50 (Leucine aminopeptidase): 47.4 µM (active)

CCOC(=O)c1ccc(N2C(=O)CC(N3CCC(C(=O)OCC)CC3)C2=O)cc1 (stereo not given)
AC50 [9]: 7.24 µM (active)

Sc1nc2ccccc2c2nc(-c3cccnc3)nn12
IC50 [1]: > 20 µM (inactive)

CCC(CC)COC(=O)C(C#N)c1nc2ccccc2nc1N1CCN(CC)CC1 (stereo not given)
CC50 [8]: 26.2 µM (active) | EC50 [10]: > 60 µM (not active) | EC50 [11]: 4.05 µM (active) | IC50 (cells): 17.9 µM (active)

Cn1c(-c2ccc3ccccc3n2)[n+](C)c2ccccc21
EC50 [6]: 12.7 µM (active) | EC50 [7]: > 120 µM (not active) | EC50 (H4): 40 µM (active)

COC(=O)C1=C(c2ccc(F)cc2OCc2ccccc2)C[C@@H]2CC[C@H]1N2C(=O)NC1CCN(Cc2ccccc2)CC1
IC50 [1]: > 20 µM (inactive)

C[C@@H](CN1CCC[C@H]1CN1C(N)=NC[C@@H]1Cc1ccccc1)N1C[C@@H](Cc2ccccc2)N(CCCC2CCCC2)C1=N
IC50 [1]: > 20 µM (inactive)

C[C@H](CO)N1C[C@H](C)[C@@H](CN(C)Cc2ccc3c(c2)OCO3)Oc2c(NC(=O)Nc3ccc(C(F)(F)F)cc3)cccc2C1=O
AC50 [12]: 11.9 µM (active) | AC50 [13]: 25.6 µM (active) | AC50 [14]: 17.3 µM (active) | AC50 [15]: 19.6 µM (active) | AC50 [16]: 21.2 µM (active) | AC50 [17]: 2.74 µM (active)

COc1ccccc1CCn1cnc(-c2ccccc2F)c1CC(C)C
AC50 [12]: 18.9 µM (active) | AC50 [13]: 27 µM (active) | AC50 [14]: > 52 µM (inactive) | AC50 [15]: 17.5 µM (active) | AC50 [16]: 27.2 µM (active)

OC(c1ccccc1)(c1ccccc1)C1CCN(CCCOc2cccc(C(F)(F)F)c2)CC1
AC50 [12]: 19.6 µM (active) | AC50 [13]: 9.53 µM (active) | AC50 [14]: 16.9 µM (active) | AC50 [15]: 21.7 µM (active) | AC50 [16]: 10.9 µM (active)

Cn1cc(Cl)c(C(=O)N/N=C/c2ccc3c4c(cccc24)CC3)n1
EC50 [2]: > 99 µM (inactive) | EC50 [3]: > 99 µM (inactive)

CC12CCC(C(=O)Nc3ccccc3Br)(C/C1=N\O)C2(C)C (stereo not given)
AC50 (Cytochrome P450 2C9): inconclusive | AC50 (Cytochrome P450 3A4): 20 µM (inconclusive) | AC50 (Cytochrome P450 2C19): 31.6 µM (inconclusive)

C[C@H]1CN([C@@H](C)CO)C(=O)c2c(c3ccccc3n2C)-c2ccccc2CO[C@@H]1CN(C)C(=O)Nc1cccc(C(F)(F)F)c1
AC50 [18]: 0.376 µM (active) | AC50 [19]: 1.13 µM (active) | AC50 [20]: 0.442 µM (active) | AC50 [21]: 0.871 µM (active)

CC(C)=CCc1c2c(c3occ(-c4ccc(O)c(O)c4)c(=O)c3c1O)C=CC(C)(C)O2 [POMIFERIN]
AC50 [9]: 13.3 µM (active)
